Reference: EP4178959B1, “NITROGEN HETEROCYCLIC CYTOKININ DERIVATIVES, COMPOSITIONS CONTAINING THESE DERIVATIVES AND USE THEREOF” (Univerzita Palackého v Olomouci, priority 2020, dated 2022)

Legend:
[1] = Calcein AM cytotoxicity assay, B10A.4 cells; conditions: mouse; for CC50 at 72 h: b10a.4 macrophages
Description: (§1) All compound concentrations were examined in duplicates. […] Zero cytotoxicity is a basic prerequisite for the use of these substances in cosmetical applications. To assess the antitumor activity, the toxicity of new derivatives on panels containing cell lines of different histogenic and species origin was tested (Table 5). […] The compounds listed in Table 5 can be divided into 2 groups.
(§2) The first group contains "classical cytokinins" represented by 6-substituted purines (their effects are already known). The second group includes novel 2-fluoro-N6-substituted-9-(2-oxacycloalkyl)-9H-purine-6-amine derivatives. […] Low cytotoxicity (high IC50 value) of the compounds is the basic prerequisite for cosmetic and medical applications. […] Table 5: Cytotoxicity of novel compounds for different normal cell lines tested / IC50 (µmol/L)

[2] = Calcein AM cytotoxicity assay, BJ cells; conditions: human; for CC50 at 72 h: bj fibroblasts
Description: as §1, §2

[3] = Calcein AM cytotoxicity assay, NIH3T3 cells; conditions: mouse; for CC50 at 72 h: nih3t3 cells
Description: as §1, §2

excised wheat leaf tips = test: Senescence inhibition on winter wheat leaf segments (chlorophyll retention); design: species or system Triticum aestivum cv. Hereward; conditions: for Emax: Triticum aestivum, foliar, read-out: Activity (%) [10^-4mol.l^-1 KTHP = 100%]; for Emax / Activity (%) [10^-4mol.l^-1 KTHP = 100%]: retention of chlorophyll in excised wheat leaf tips, 96 h in the dark, at concentration with highest activity; for Concentration with highest activity: retention of chlorophyll
Description: Seeds of winter wheat, Triticum aestivum cv. Hereward, were washed under running water for 24 hours and then sown on vermiculite soaked with the Knop's solution. They were placed in the grow chamber at 25 °C with a 16/8 h light period at 50 μmol.m^-2.s^-1. After 7 days, the first leaf was fully developed and the second leaf had started to grow. A tip section of the first leaf, approximately 35 mm long, was removed from 5 seedlings and trimmed slightly to a combined weight of 100 mg. The basal ends of the five leaf tips were placed in the wells of a microtiter polystyrene plate containing 150 μl of the solution of the tested compound each. The entire plate was inserted into a plastic box lined with paper tissues soaked with distilled water to prevent leaf sections from drying out. […] The absorbance of the extract was recorded at 665 nm. In addition, chlorophyll extracts from fresh leaves and leaf tips incubated in deionised water were measured. From the obtained data, the concetration with the highest activity was selected for each compound tested. Relative activity of the compound at this concentration was calculated (Table 7). […] The values shown are means of five replicates and the whole experiment was repeated twice. The compounds to be tested were dissolved in dimethylsulfoxide (DMSO) and the solution brought up to 10^-3 M with distilled water. […] The compounds listed in Table 7 can be divided into 2 groups. The first group contains "classical 6,9-disubstituted purines (KTHP as a control)" known in prior art. […] Table 9: […]

[4] = Cytotoxicity IC50, B10A.4, first column headed B10A.4
[5] = Cytotoxicity IC50, B10A.4, second column headed B10A.4

Row | SMILES | IC50 at 72 h [1, 4] | IC50 at 72 h [2] | IC50 at 72 h [3] | Emax (excised wheat leaf tips) | Concentration with highest activity (excised wheat leaf tips) | Activity (%) [10^-4mol.l^-1 KTHP = 100%] (excised wheat leaf tips) | CC50 at 72 h [1, 4] | CC50 at 72 h [2] | CC50 at 72 h [3] | CC50 at 72 h [1, 5] | IC50 at 72 h [1, 5]
1 | COc1cc(CNc2nc(F)nc3c2ncn3C2CCCO2)ccc1O (stereo not drawn) [Compound 43, 2-Fluoro-6-[(4-hydroxy-3-methoxybenzyl)amino]-9-(tetrahydrofuran-2-yl)-9H-purine] | > 167 µM | > 167 µM | > 167 µM | 55% | – | – | – | – | – | – | –
2 | c1coc(CNc2ncnc3c2ncn3C2CCCCO2)c1 (stereo not drawn) [KTHP, 6-furfurylamino-9-tetrahydropyranylpurine, reference compound] | – | – | – | – | 10^-4 mol.l^-1 | 100 (± 8.6) % | – | – | – | – | –
3 | COc1cc(CNc2nc(F)nc3c2ncn3C2CCCO2)cc(OC)c1 (stereo not drawn) [Compound 40] | – | – | – | – | 10^-4 mol.l^-1 | 163 (± 8) % | > 167 µM | > 167 µM | > 167 µM | – | –
4 | Oc1ccc(CNc2nc(F)nc3c2ncn3C2CCCCO2)cc1 (stereo not drawn) [Compound 66, 2-Fluoro-6-[(4-hydroxybenzyl)amino]-9-(tetrahydro-2H-pyran-2-yl)-9H-purine] | > 167 µM | > 167 µM | > 167 µM | 74% | – | – | – | – | – | – | –
5 | COc1cccc(CNc2nc(F)nc3c2ncn3C2CCCO2)c1O (stereo not drawn) [Compound 20] | – | – | – | – | 10^-4 mol.l^-1 | 50 (± 5) % | 124 µM | 137 µM | > 141 µM | 126 µM | –
6 | Oc1ccc(CNc2nc(F)nc3c2ncn3C2CCCO2)o1 (stereo not drawn) [Compound 55] | – | – | – | – | 10^-4 mol.l^-1 | 101 (± 17) % | > 167 µM | > 167 µM | > 167 µM | – | –
7 | COc1ccc(CNc2nc(F)nc3c2ncn3C2CCCO2)c(O)c1 (stereo not drawn) [Compound 21] | – | – | – | – | 10^-4 mol.l^-1 | 35 (± 9.5) % | 147 µM | 132 µM | 158 µM | – | –
8 | COc1cc(O)cc(OC)c1CNc1nc(F)nc2c1ncn2C1CCCO1 (stereo not drawn) [Compound 42] | – | – | – | – | 10^-4 mol.l^-1 | 22 (± 4) % | > 167 µM | > 167 µM | > 167 µM | – | –
9 | COc1ccc(CNc2nc(F)nc3c2ncn3C2CCCO2)cc1OC (stereo not drawn) [Compound 39] | – | – | – | – | 10^-4 mol.l^-1 | 126 (± 21) % | > 167 µM | > 167 µM | > 167 µM | – | –
10 | COc1cccc(OC)c1CNc1nc(F)nc2c1ncn2C1CCCO1 (stereo not drawn) [Compound 38] | – | – | – | – | 10^-4 mol.l^-1 | 128 (± 16) % | > 167 µM | > 167 µM | > 167 µM | – | –
11 | Oc1ccccc1CNc1nc(F)nc2c1ncn2C1CCCO1 (stereo not drawn) [Compound 14] | – | – | – | – | 10^-4 mol.l^-1 | 53.6 (± 7) % | > 167 µM | > 167 µM | > 167 µM | > 167 µM | –
12 | Cc1cc(CNc2nc(F)nc3c2ncn3C2CCCO2)ccc1O (stereo not drawn) [Compound 51] | – | – | – | – | 10^-4 mol.l^-1 | 19 (± 2) % | > 167 µM | > 167 µM | > 167 µM | – | –
13 | Oc1ccc(CNc2nc(F)nc3c2ncn3C2CCCO2)cc1O (stereo not drawn) [Compound 33] | – | – | – | – | 10^-4 mol.l^-1 | 71.3 (± 17) % | > 167 µM | > 167 µM | > 167 µM | – | –
14 | COc1cc(CNc2nc(F)nc3c2ncn3C2CCCO2)cc(OC)c1O (stereo not drawn) [Compound 41] | – | – | – | – | 10^-4 mol.l^-1 | 42 (± 13) % | > 167 µM | > 167 µM | > 167 µM | – | –
15 | Nc1ncnc2nc[nH]c12 [Adenine, reference compound] | > 167 µM | > 167 µM | > 167 µM | – | – | – | – | – | – | – | > 167 µM
16 | Cc1ccc(CNc2nc(F)nc3c2ncn3C2CCCCO2)o1 (stereo not drawn) [Compound 60, 2-Fluoro-6-[(5-methylfurfuryl)amino]-9-(tetrahydro-2H-pyran-2-yl)-9H-purine] | > 167 µM | > 167 µM | > 167 µM | 123% | – | – | – | – | – | – | –
17 | COc1cc(O)cc(CNc2nc(F)nc3c2ncn3C2CCCO2)c1 (stereo not drawn) [Compound 44] | – | – | – | – | 10^-4 mol.l^-1 | 47 (± 11) % | > 167 µM | > 167 µM | > 167 µM | – | –
18 | COc1ccc(CNc2nc(F)nc3c2ncn3C2CCCO2)c(OC)c1 (stereo not drawn) [Compound 36] | – | – | – | – | 10^-4 mol.l^-1 | 125.6 (± 15) % | > 167 µM | > 167 µM | > 167 µM | – | –
19 | Oc1ccoc1CNc1nc(F)nc2c1ncn2C1CCCO1 (stereo not drawn) [Compound 53] | – | – | – | – | 10^-4 mol.l^-1 | 45 (± 13) % | > 167 µM | > 167 µM | > 167 µM | – | –
20 | Cc1cccc(CNc2nc(F)nc3c2ncn3C2CCCO2)c1O (stereo not drawn) [Compound 49] | – | – | – | – | 10^-4 mol.l^-1 | 16.4 (± 3) % | 156 µM | 161 µM | > 167 µM | – | –
21 | Cc1ccc(O)c(CNc2nc(F)nc3c2ncn3C2CCCO2)c1 (stereo not drawn) [Compound 50] | – | – | – | – | 10^-4 mol.l^-1 | 82 (± 12) % | > 167 µM | > 167 µM | > 167 µM | – | –
22 | CC(CO)CCNc1nc(F)nc2c1ncn2C1CCCO1 (stereo not drawn) [Compound 11] | – | – | – | – | 10^-4 mol.l^-1 | 125 (± 12) % | 146 µM | > 167 µM | 139 µM | – | –
23 | COc1ccc(CNc2nc(F)nc3c2ncn3C2CCCCO2)o1 (stereo not drawn) [Compound 63] | – | – | – | – | 10^-4 mol.l^-1 | 97 (± 5) % | > 167 µM | > 167 µM | > 167 µM | – | –
24 | C/C(=C\CNc1nc(F)nc2c1ncn2C1CCCCO1)CO (stereo not drawn) [Compound 70] | – | – | – | – | 10^-4 mol.l^-1 | 126 (± 12) % | > 167 µM | > 167 µM | > 167 µM | – | –
25 | Oc1cc(O)cc(CNc2nc(F)nc3c2ncn3C2CCCO2)c1 (stereo not drawn) [Compound 34] | – | – | – | – | 10^-4 mol.l^-1 | 145 (± 12) % | > 167 µM | > 167 µM | > 167 µM | – | –
26 | Oc1ccccc1CNc1ncnc2nc[nH]c12 [ortho-topolin, reference compound] | – | – | – | – | – | – | 87.5 µM | 108 µM | 94.1 µM | 94.3 µM | –
27 | c1coc(CNc2ncnc3[nH]cnc23)c1 [Kinetin, reference compound] | > 167 µM | 148 µM | 133 µM | – | – | – | – | – | – | – | 164 µM
28 | CC(C)=CCNc1ncnc2nc[nH]c12 [isopentenyladenine, reference compound] | – | – | – | – | – | – | > 167 µM | 134 µM | 124 µM | 147 µM | –
